Residue numbers refer to the chain shown, from its start.
Legend:
Assay in all cases: HPLC forward-reaction glutamine synthetase assay with serine protease inhibitors
Type in all cases: biochemical, E. coli
[1] = target: T1, glutamine synthetase mutant S53A Y397V (Escherichia coli, UniProt P0A9C5, S54A/Y398V); settings: 1 mM inhibitor; for % Reduction in ADP-based Specific Activity / % Reduction in Glutamine-based Specific Activity: 60 min pre-incubation, vs no-inhibitor control, positive = activity increased; for % Conversion: glutamine-based divided by ADP-based specific activity
T1 construct: made in house; host or cells: E. coli YMC11 (glutamine synthetase auxotroph), pBluescript II SK+
T1 sequence (P0A9C5 2-469 S54A/Y398V limits assumed): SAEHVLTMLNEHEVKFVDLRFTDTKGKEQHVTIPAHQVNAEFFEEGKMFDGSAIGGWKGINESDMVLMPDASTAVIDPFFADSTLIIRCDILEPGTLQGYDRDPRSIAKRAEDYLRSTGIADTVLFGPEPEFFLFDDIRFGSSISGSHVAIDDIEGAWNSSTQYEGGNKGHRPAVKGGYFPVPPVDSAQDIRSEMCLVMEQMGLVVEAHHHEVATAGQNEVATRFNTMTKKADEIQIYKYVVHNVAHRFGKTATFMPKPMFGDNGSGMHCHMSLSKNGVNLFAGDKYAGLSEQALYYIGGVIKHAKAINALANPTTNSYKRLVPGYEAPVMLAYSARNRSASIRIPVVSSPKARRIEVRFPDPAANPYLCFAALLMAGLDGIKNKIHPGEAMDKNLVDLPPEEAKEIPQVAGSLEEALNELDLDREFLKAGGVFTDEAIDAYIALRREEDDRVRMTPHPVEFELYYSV
Procedure: (§1) This assay was set up to measure glutamine synthetase activity according to the forward reaction, and measures the amount of glutamine formed from […] of L-glutamate in the presence of MnCO3-ATP (the basis of one reaction) and MgATP (the basis of a second reaction). In addition, the amount of ADP formed is also measured in a separate assay, using the same reagents.
(§2) All enzyme preparations were adjusted to the same concentration of protein, and added to the assay mixture in a volume of 50 μl. The addition of the enzyme started the reaction, which was then allowed to proceed for 1 hour. The reaction was stopped by the addition of 6 μl of a 50% solution of trichloroacetic acid. Each assay was then aliquoted into 4 HPLC vials (150 μl per vial), two of which were assayed for glutamate and glutamine using a Phenomenex Luna 5 μC18 Column on an Agilent 100 HPLC instrument. The ATP/ADP assays were run on a Chromolith Performance RP-18c column also using an Agilent 100 HPLC instrument.
(§3) As it is believed that two putative catalytic triads, similar to those in the serine proteases, are involved in the reaction mechanism of glutamine synthetase, certain of the mutants were also assayed by HPLC in the presence of the serine protease inhibitors, AEBSF and PMSF, in order to assess the effect that these inhibitors had on the enzyme. The enzymes assessed were the adenylylated WT enzyme, the deadenylylated WT enzyme, and the mutant enzymes S52A, S52A Y397V, S53A, S53A Y397V, S52A S53A and S52A S53A Y397V. The enzymes were pre-incubated for 60 minutes in the presence of 1 mM PMSF or 1 mM AEBSF. A control reaction was set up for each enzyme, which contained no inhibitor. Each enzyme was then added to assays set up as described above. The assay was allowed to proceed for 60 minutes, then stopped by the addition of […] of 50% TCA, after which they were analysed by HPLC. All assays were run in triplicate.
(§4) In addition to the γ-glutamyl transferase assays, assays were also developed to measure the rate of conversion of ATP and glutamate to ADP and glutamine by HPLC. These were set up as single assays but analysed separately for glutamate and glutamine and ATP and ADP. The conversion rates for glutamate to glutamine, in both the presence of Mn^2+ and Mg^2+ by glutamine synthetase, is referred to as the […] specific activity and is presented in μmoles/min/mg protein. The conversion rates for ATP to ADP, in both the presence of Mn^2+ and Mg^2+ by glutamine synthetase, is referred to as the ADP-based specific activity and is presented in μmoles/min/mg protein. The percentage of conversion was also calculated by dividing the glutamine-based specific activity by the ADP-based specific activity, and this value is interpreted as the ability of the enzyme to complete both steps of the reaction, i.e., glutamate to glutamine and ATP to ADP, at an equivalent level of efficiency.

[2] = target: T2, glutamine synthetase mutant S53A (Escherichia coli, UniProt P0A9C5, S54A); settings: 1 mM inhibitor; for inhibition of the enzyme (in words): HPLC assays; for % Reduction in ADP-based Specific Activity / % Reduction in Glutamine-based Specific Activity: 60 min pre-incubation, vs no-inhibitor control, positive = activity increased; for % Conversion: glutamine-based divided by ADP-based specific activity
T2 construct: made in house; host or cells: E. coli YMC11 (glutamine synthetase auxotroph), pBluescript II SK+
T2 sequence (P0A9C5 2-469 S54A limits assumed): T1 sequence (P0A9C5 2-469 S54A/Y398V limits assumed) with V397Y
Procedure: as §1, §2, §3, §4

[3] = target: T3, glutamine synthetase mutant S52A (Escherichia coli, UniProt P0A9C5, S53A); settings: 1 mM inhibitor; for inhibition of the enzyme (in words): HPLC assays; for % Reduction in ADP-based Specific Activity / % Reduction in Glutamine-based Specific Activity: 60 min pre-incubation, vs no-inhibitor control, positive = activity increased; for % Conversion: glutamine-based divided by ADP-based specific activity
T3 construct: made in house; host or cells: E. coli YMC11 (glutamine synthetase auxotroph), pBluescript II SK+
T3 sequence (P0A9C5 2-469 S53A limits assumed): T1 sequence (P0A9C5 2-469 S54A/Y398V limits assumed) with S52A, A53S, V397Y
Procedure: as §1, §2, §3, §4

SMILES	% Reduction in ADP-based Specific Activity ([1]; Mn assay)	% Reduction in Glutamine-based Specific Activity ([1]; Mn assay)	% Conversion ([1]; Mn assay) [%]	inhibition of the enzyme (in words) [2]	% Reduction in ADP-based Specific Activity ([2]; Mg assay) [%]	% Reduction in Glutamine-based Specific Activity ([2]; Mg assay)	% Conversion ([2]; Mg assay) [%]	% Reduction in ADP-based Specific Activity ([2]; Mn assay)	% Reduction in Glutamine-based Specific Activity ([2]; Mn assay) [%]	% Conversion ([2]; Mn assay) [%]	inhibition of the enzyme (in words) [3]	% Reduction in ADP-based Specific Activity ([3]; Mg assay) [%]	% Reduction in Glutamine-based Specific Activity ([3]; Mg assay) [%]	% Conversion ([3]; Mg assay) [%]	% Reduction in ADP-based Specific Activity ([3]; Mn assay)	% Reduction in Glutamine-based Specific Activity ([3]; Mn assay)	% Conversion ([3]; Mn assay) [%]	inhibition of the enzyme (in words) ([1]; HPLC assays)	% Reduction in ADP-based Specific Activity ([1]; Mg assay) [%]	% Reduction in Glutamine-based Specific Activity ([1]; Mg assay) [%]
O=S(=O)(F)Cc1ccccc1 [PMSF]	+39.67%	+6.07%	63	found to inhibit	−17.31	+6.90%	66	+46.95%	−22.73	61	found to inhibit	−19.51	−43.54	59	−13.41%	−39.84%	64			
NCCc1ccc(S(=O)(=O)F)cc1 [AEBSF]	+14.80%	+5.16%	75	appeared to cause inhibition	−39.50	−1.70%	83	−15.43%	−15.19	115	appeared to cause inhibition	−31.77	−10.61	109	+30.66%	+15.27%	81	appeared to cause inhibition	−100.00	−55.60

Reference: US20100022584A1, “Modulation of Glutamine Synthetase Activity” (priority 2006, published 2010)
